The assay addresses Protease (Human immunodeficiency virus 1) (UniProt Q9YQ12). Put plainly: Inhibition of HIV1 recombinant protease expressed in Escherichia coli DH5alpha at 17.9 ug/mL after 2 hrs by HPLC assay.
Sequence of Protease (Human immunodeficiency virus 1) (Q9YQ12 as listed by the source): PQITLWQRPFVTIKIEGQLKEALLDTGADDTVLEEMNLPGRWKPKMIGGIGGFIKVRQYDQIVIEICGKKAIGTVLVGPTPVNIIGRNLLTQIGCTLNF
With `C[C@@H]1CC[C@]2(C(=O)O)CC[C@]3(C)C(=CC[C@@H]4[C@@]5(C)C[C@@H](O)C(=O)C(C)(C)[C@@H]5CC[C@]43C)[C@@H]2[C@]1(C)O`, the inhibition was 72%. As for `C[C@@H]1CC[C@]2(C(=O)O)CC[C@]3(C)C(=CC[C@@H]4[C@@]5(C)CC[C@@H](O)C(C)(C)[C@@H]5CC[C@]43C)[C@@H]2[C@]1(C)O`, the figure is 42%; as for `CC1(C)CC[C@]2(C(=O)O)CC[C@]3(C)C(=CC[C@@H]4[C@@]5(C)C[C@@H](O)[C@H](O)C(C)(C)[C@@H]5CC[C@]43C)[C@@H]2C1`, 100%; as for `C[C@@H]1CC[C@]2(C(=O)O)CC[C@]3(C)C(=CC[C@@H]4[C@@]5(C)C[C@@H](O)[C@H](O)C(C)(C)[C@@H]5CC[C@]43C)[C@@H]2[C@]1(C)O`, 49%.

Turning to `C[C@H]1[C@H](C)CC[C@]2(C(=O)O)CC[C@]3(C)C(=CC[C@@H]4[C@@]5(C)CC[C@H](O)C(C)(C)[C@@H]5CC[C@]43C)[C@H]12`, the inhibition is 85%.

Regarding `C[C@@H]1CC[C@]2(C(=O)O)CC[C@]3(C)C(=CC[C@@H]4[C@@]5(C)C[C@@H](O)[C@@H](O)C(C)(C)[C@@H]5CC[C@]43C)[C@@H]2[C@]1(C)O`, the inhibition was determined as 0%.

The inhibition is the change of the read-out against control, counted positive when it falls.

The values above are taken from ChEMBL document CHEMBL1158228, “Anti-HIV triterpene acids from Geum japonicum” (J Nat Prod, 1996).
